Measured values from ChEMBL document CHEMBL5500426, “Directly Suppressing MYC Function with Novel Alkynyl-Substituted Phenylpyrazole Derivatives that Induce Protein Degradation and Perturb MYC/MAX Interaction” (J Med Chem, 2024).
The source made the active and inactive calls. No cut-off for these calls is given here.

What was measured:
[1] = Toxicity in BALB/C mouse xenografted with human PC-3 cells assessed as histopathological change in liver at 50 to 100 mg/kg,ip administrated daily for 21 consecutive days by hematoxylin and eosin staining based microscopic analysis; type: organism-based; details: in vivo, dose 50-100 mg/kg
[2] = Toxicity in FVB mouse implanted with mouse Myc-CaP cells assessed as body weight loss at 10 to 50 mg/kg,ip administrated daily for 14 consecutive days; type: organism-based; details: in vivo, dose 10-50 mg/kg
[3] = biological target: Myc proto-oncogene protein (Homo sapiens) (UniProt P01106); assay: Inhibition of MYC in human PC-3 cells assessed as downregulation of MYC expression at 1 uM incubated for 24 hrs by Western blotting analysis relative to control; type: cell-based
[4] = AUC (0 to t) in Sprague-Dawley rat at 2 mg/kg,iv administration by LC-MS/MS analysis; type: ADME, organism-based; details: in vivo
SK-N-BE(2) = assay: Antiproliferative activity against human SK-N-BE(2) cells assessed as inhibition of cell growth incubated for 72 hrs by MTT assay; type: functional, cell-based; details: SKNBE2, 72 h
[5] = biological target: Protein max (Homo sapiens) (UniProt P61244); assay: Binding affinity to MAX in human PC-3 cells assessed as effect on protein thermal stabilization at 10 uM with 37 to 58 degreeC incubated for 1 hr by CETSA based Western blotting analysis; type: cell-based
[6] = Toxicity in FVB mouse implanted with mouse Myc-CaP cells assessed as histopathological change in heart at 10 to 50 mg/kg,ip administrated daily for 14 consecutive days by hematoxylin and eosin staining based microscopic analysis; type: organism-based; details: in vivo, dose 10-50 mg/kg
Myc-CaP [7] = assay: Antiproliferative activity against mouse Myc-CaP cells assessed as inhibition of cell growth incubated for 72 hrs by MTT assay; type: functional, cell-based
HCT-116 = assay: Antiproliferative activity against human HCT-116 cells assessed as inhibition of cell growth incubated for 72 hrs by MTT assay; type: functional, cell-based; details: HCT-116, 72 h
MDA-MB-231 = assay: Antiproliferative activity against human MDA-MB-231 cells assessed as inhibition of cell growth incubated for 72 hrs by MTT assay; type: functional, cell-based; details: MDA-MB-231, 72 h
[8] = AUC (0 to t) in Sprague-Dawley rat at 10 mg/kg,ip administration by LC-MS/MS analysis; type: ADME, organism-based; details: in vivo
[9] = Toxicity in FVB mouse implanted with mouse Myc-CaP cells assessed as histopathological change in spleen at 10 to 50 mg/kg,ip administrated daily for 14 consecutive days by hematoxylin and eosin staining based microscopic analysis; type: organism-based; details: in vivo, dose 10-50 mg/kg
Myc-CaP [10] = assay: Antitumor activity against mouse Myc-CaP cells implanted in FVB mouse assessed as reduction in tumor volume at ip administrated daily for 14 consecutive days; type: functional, organism-based
SGC-7901 = assay: Antiproliferative activity against human SGC-7901 cells assessed as inhibition of cell growth incubated for 72 hrs by MTT assay; type: functional, cell-based; details: SGC-7901, 72 h
[11] = Toxicity in BALB/C mouse xenografted with human PC-3 cells assessed as body weight loss at 50 to 100 mg/kg,ip administrated daily for 21 consecutive days; type: organism-based; details: in vivo, dose 50-100 mg/kg
Myc-CaP [12] = assay: Antitumor activity against mouse Myc-CaP cells implanted in FVB mouse assessed as tumor growth inhibition at 30 mg/kg,ip administrated daily for 14 consecutive days relative to control; type: functional; details: read-out: TGI
[13] = Cytotoxicity against human HUVEC cells assessed as inhibition of cell growth incubated for 72 hrs by MTT assay; type: toxicity, cell-based
Myc-CaP [14] = assay: Antitumor activity against mouse Myc-CaP cells implanted in FVB mouse assessed as tumor growth inhibition at 10 mg/kg,ip administrated daily for 14 consecutive days relative to control; type: functional; details: read-out: TGI
MDA-MB-468 = assay: Antiproliferative activity against human MDA-MB-468 cells assessed as inhibition of cell growth incubated for 72 hrs by MTT assay; type: functional, cell-based; details: MDA-MB-468, 72 h
Myc-CaP [15] = assay: Antitumor activity against mouse Myc-CaP cells implanted in FVB mouse assessed as reduction in tumor weight at ip administrated daily for 14 consecutive days; type: functional, organism-based
HL-60 = assay: Antiproliferative activity against human HL-60 cells assessed as inhibition of cell growth incubated for 72 hrs by MTT assay; type: functional, cell-based; details: HL-60, 72 h
Myc-CaP [16] = assay: Antitumor activity against mouse Myc-CaP cells implanted in FVB mouse assessed as tumor growth inhibition at 50 mg/kg,ip administrated daily for 14 consecutive days relative to control; type: functional; details: read-out: TGI
[17] = biological target: Myc proto-oncogene protein (Homo sapiens) (UniProt P01106); assay: Inhibition of MYC in human PC-3 cells assessed as downregulation of MYC expression incubated for 24 hrs by Western blotting analysis; type: cell-based
[18] = Half life in Sprague-Dawley rat at 2 mg/kg,iv administration by LC-MS/MS analysis; type: ADME, organism-based; details: in vivo
A549 = assay: Antiproliferative activity against human A549 cells assessed as inhibition of cell growth incubated for 72 hrs by MTT assay; type: functional, cell-based; details: A549, 72 h
[19] = Toxicity in FVB mouse implanted with mouse Myc-CaP cells assessed as histopathological change in kidney at 10 to 50 mg/kg,ip administrated daily for 14 consecutive days by hematoxylin and eosin staining based microscopic analysis; type: organism-based; details: in vivo, dose 10-50 mg/kg
[20] = Bioavailability in Sprague-Dawley rat at 2 mg/kg,iv administration by LC-MS/MS analysis; type: ADME, organism-based; details: in vivo
SK-OV-3 = assay: Antiproliferative activity against human SK-OV-3 cells assessed as inhibition of cell growth incubated for 72 hrs by MTT assay; type: functional, cell-based; details: SK-OV-3, 72 h
[21] = Toxicity in FVB mouse implanted with mouse Myc-CaP cells assessed as histopathological change in lung at 10 to 50 mg/kg,ip administrated daily for 14 consecutive days by hematoxylin and eosin staining based microscopic analysis; type: organism-based; details: in vivo, dose 10-50 mg/kg
[22] = Half life in Sprague-Dawley rat at 10 mg/kg,ip administration by LC-MS/MS analysis; type: ADME, organism-based; details: in vivo
[23] = Toxicity in BALB/C mouse xenografted with human PC-3 cells assessed as histopathological change in kidney at 50 to 100 mg/kg,ip administrated daily for 21 consecutive days by hematoxylin and eosin staining based microscopic analysis; type: organism-based; details: in vivo, dose 50-100 mg/kg
[24] = biological target: Myc proto-oncogene protein (Homo sapiens) (UniProt P01106); assay: Inhibition of MYC in human PC-3 cells assessed as downregulation of MYC expression at 10 uM incubated for 24 hrs in presence of proteasome inhibitor MG132 by Western blotting analysis; type: cell-based
[25] = biological target: Myc proto-oncogene protein (Homo sapiens) (UniProt P01106); assay: Binding affinity to MYC in human PC-3 cells assessed as decrease in melting temperature at 10 uM with 37 to 52 degreeC incubated for 1 hr by CETSA based Western blotting analysis; type: cell-based
[26] = Toxicity in FVB mouse implanted with mouse Myc-CaP cells assessed as histopathological change in liver at 10 to 50 mg/kg,ip administrated daily for 14 consecutive days by hematoxylin and eosin staining based microscopic analysis; type: organism-based; details: in vivo, dose 10-50 mg/kg
[27] = Volume of distribution at steady state in Sprague-Dawley rat at 10 mg/kg,ip administration by LC-MS/MS analysis; type: ADME, organism-based; details: in vivo
[28] = Clearance in Sprague-Dawley rat at 2 mg/kg,iv administration by LC-MS/MS analysis; type: ADME, organism-based; details: in vivo

Chain of Myc proto-oncogene protein (Homo sapiens) (P01106 whole entry): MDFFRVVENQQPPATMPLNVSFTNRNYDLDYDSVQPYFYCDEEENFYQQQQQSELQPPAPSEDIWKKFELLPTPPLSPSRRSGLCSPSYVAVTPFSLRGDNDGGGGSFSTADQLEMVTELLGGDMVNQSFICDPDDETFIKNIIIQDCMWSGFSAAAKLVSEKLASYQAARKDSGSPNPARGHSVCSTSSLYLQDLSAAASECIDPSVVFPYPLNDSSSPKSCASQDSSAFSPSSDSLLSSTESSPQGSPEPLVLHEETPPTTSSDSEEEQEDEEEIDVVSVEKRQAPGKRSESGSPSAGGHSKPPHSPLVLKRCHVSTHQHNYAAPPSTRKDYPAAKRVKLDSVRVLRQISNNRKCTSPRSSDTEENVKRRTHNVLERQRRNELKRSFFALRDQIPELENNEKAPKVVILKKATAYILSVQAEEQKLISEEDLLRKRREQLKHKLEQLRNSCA
Chain of Protein max (Homo sapiens) (P61244 whole entry): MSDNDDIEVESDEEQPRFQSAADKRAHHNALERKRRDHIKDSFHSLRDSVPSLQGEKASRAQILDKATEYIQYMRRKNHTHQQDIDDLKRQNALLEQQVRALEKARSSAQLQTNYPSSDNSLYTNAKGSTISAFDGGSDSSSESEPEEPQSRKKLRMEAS

In the case of Oc1c(-c2cc(C(F)(F)F)n[nH]2)ccc(C#CCCN2CCOCC2)c1-c1ccc(Cl)c(C(F)(F)F)c1, the Activity [1] is reported as “Non-Toxic”, the Activity [2] is reported as “Non-Toxic” and the inhibition [3] is reported as greater than 50%. The AUC(0-t) [4] was 1400 ng·h/mL, the IC50 (SK-N-BE(2)) was 1.25 µM and the Activity [5] was “inactive”. The Activity [6] was “Non-Toxic”, the IC50 (Myc-CaP [7]) was 0.55 µM and the IC50 (HCT-116) was 1.01 µM. The IC50 (MDA-MB-231) was 1.35 µM, the AUC(0-t) [8] was 2220 ng·h/mL and the Activity [9] was “Non-Toxic”. For the same compound, the Activity (Myc-CaP [10]) was “Dose-Dependent Effect”, the IC50 (SGC-7901) was 1.96 µM and the Activity [11] was “Toxic”. It also gave an inhibition in vivo at 30 mg/kg (Myc-CaP [12]) of 67%, an IC50 at 72 h [13] of 16.6 µM and an inhibition in vivo at 10 mg/kg (Myc-CaP [14]) of 37%. The IC50 (MDA-MB-468) was 4.32 µM, the Activity (Myc-CaP [15]) was “Dose-Dependent Effect” and the IC50 (HL-60) was 1.89 µM. The inhibition in vivo at 50 mg/kg (Myc-CaP [16]) was 85%, the inhibition [17] was “Dose-Dependent Effect” and the half-life [18] was 3.22 h. The IC50 (A549) was 1.24 µM, the Activity [19] was “Non-Toxic” and the bioavailability [20] was 31.7%. For the same compound, the IC50 (SK-OV-3) was 1.25 µM, the Activity [21] was “Non-Toxic” and the half-life [22] was 5.97 h. For the same compound, the Activity [23] was “Non-Toxic”, the inhibition [24] was “inactive” and the Activity [25] was “Active”. For the same compound, the Activity [26] was “Non-Toxic”, the Vdss [27] was 38.43 L/kg and the clearance [28] was 23.6 mL/min/kg.
